# Laboratory results published in publication PMC3616060, “Full Inhibition of Spinal FAAH Leads to TRPV1-Mediated Analgesic Effects in Neuropathic Rats and Possible Lipoxygenase-Mediated Remodeling of Anandamide Metabolism” (PLoS ONE, 2013).
# Experiments:
# [1] = molecular target: T1, transient receptor potential vanilloid-1 (TRPV1) (Rattus norvegicus, UniProt O35433); test: intracellular Ca2+ (Fluo-4) assay in HEK-293 cells expressing rat TRPV1; much lower effect, if any, in wild-type cells or after I-RTX; assay type: cell-based
# T1 construct: rat recombinant TRPV1 stably expressed in HEK-293 cells
# [2] = molecular target: T1, transient receptor potential vanilloid-1 (TRPV1); test: intracellular Ca2+ (Fluo-4) assay in HEK-293 cells expressing rat TRPV1; assay type: cell-based
# T1 sequence (O35433 whole entry): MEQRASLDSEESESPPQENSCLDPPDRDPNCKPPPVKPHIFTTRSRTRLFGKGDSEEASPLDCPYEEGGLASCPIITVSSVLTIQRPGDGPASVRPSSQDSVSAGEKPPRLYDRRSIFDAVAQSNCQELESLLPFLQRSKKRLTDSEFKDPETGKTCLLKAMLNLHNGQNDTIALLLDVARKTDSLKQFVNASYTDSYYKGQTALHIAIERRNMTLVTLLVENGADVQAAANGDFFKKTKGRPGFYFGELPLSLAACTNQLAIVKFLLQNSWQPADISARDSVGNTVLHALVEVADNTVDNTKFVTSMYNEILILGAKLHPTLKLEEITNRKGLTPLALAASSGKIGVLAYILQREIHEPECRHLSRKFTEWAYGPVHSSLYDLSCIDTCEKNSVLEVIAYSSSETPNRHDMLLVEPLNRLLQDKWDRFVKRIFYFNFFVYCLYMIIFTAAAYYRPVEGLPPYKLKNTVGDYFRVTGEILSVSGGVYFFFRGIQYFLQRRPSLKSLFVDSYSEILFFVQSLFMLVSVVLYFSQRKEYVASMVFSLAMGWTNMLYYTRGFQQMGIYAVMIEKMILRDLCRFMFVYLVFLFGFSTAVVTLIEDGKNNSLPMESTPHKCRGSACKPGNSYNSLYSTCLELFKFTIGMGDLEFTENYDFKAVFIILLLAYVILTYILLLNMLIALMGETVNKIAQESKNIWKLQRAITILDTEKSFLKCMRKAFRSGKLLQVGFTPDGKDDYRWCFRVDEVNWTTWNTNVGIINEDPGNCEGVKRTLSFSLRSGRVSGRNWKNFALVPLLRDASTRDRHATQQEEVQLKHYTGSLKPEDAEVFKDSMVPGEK
SMILES,EC50 [1] [µM],EC50 [2] [µM]
"CCCCC[C@H](O)/C=C/C=C\C/C=C\C/C=C\CCCC(=O)NCCO [15S-HAEA, 15(S)-hydroxy-AEA]",11.3 ± 0.9,
"CCCCC/C=C\C/C=C\C/C=C\C/C=C\CCCC(=O)NCCO [AEA, anandamide]",,0.24 ± 0.03
